Source: ChEMBL document CHEMBL1201862, “PubChem BioAssay data set” (2004)
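48-hour exposure; five concentrations; linearly interpolated endpoints. Here, GI50 denotes the concentration required for 50% inhibition of growth.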 Active and inactive are the calls of the source. Rule as the data show it: active = GI50 up to about 1.1 µM and inactive = higher. *1 amine or outer side, *2 acyl side, *3 side chain or, on linkers, in order; H or OH if unused. Where a SMILES comes first, the peptide text is derived from it. Bridges are numbered along the chain shown (N, C = ends). [ ]: non-standard residue; d: D form. X36 = CC[C@H](C)[C@@H](N[*:1])[C@@H](O)CC(=O)O[C@H](C(=O)[C@H](C)C(=O)[*:2])C(C)C; NMeY = CN[C@@H](Cc1ccc(O)cc1)C(=O)O

Tests used:
Experiment in all cases: DTP human tumour cell line panel, 48 h
[1] = system: SW-620
[2] = system: DU-145
[3] = system: LOX IMVI
[4] = system: OVCAR-3
[5] = system: SK-MEL-28
[6] = system: HT-29
[7] = system: MDA-MB-231
[8] = system: A498
[9] = system: OVCAR-8
[10] = system: ACHN
[11] = system: UACC-257
[12] = system: CCRF-CEM
[13] = system: NCI-H460
[14] = system: NCI/ADR-RES
[15] = system: HCT-116
[16] = system: TK-10
[17] = system: MCF7
[18] = system: MOLT-4
[19] = system: NCI-H23
[20] = system: PC-3

Measured: GI50

O=C(CSCC(=O)N/N=C\c1ccc(O)c(O)c1O)N/N=C\c1ccc(O)c(O)c1O
inactive: [1] 3.39 µM | [2] 14.1 µM | [3] 2.18 µM | [4] 3.38 µM | [5] 20.8 µM | [6] 11.6 µM | [7] 16.6 µM | [8] 29.7 µM | [9] 2.31 µM | [10] 5.87 µM | [11] 5.25 µM | [12] 1.73 µM | [13] 23.3 µM | [14] 1.54 µM | [15] 3.37 µM | [16] 24 µM | [17] 3.8 µM | [18] 3.15 µM | [19] 1.69 µM

CC1CCC(C(=O)O)(C(Br)C(=O)O)CC1 (stereo unspecified)
inactive: [1] > 100 µM | [2] > 100 µM | [3] > 100 µM | [20] > 100 µM | [4] > 100 µM | [5] > 100 µM | [6] > 100 µM | [7] > 100 µM | [9] > 100 µM | [10] > 100 µM | [11] > 100 µM | [12] > 100 µM | [13] > 100 µM | [14] > 100 µM | [15] > 100 µM | [16] > 100 µM | [18] > 100 µM | [19] > 100 µM

CC[C@H](C)[C@H]1NC(=O)[C@@H](N)[C@@H](C)OC(=O)[C@H](Cc2ccc(OC)cc2)N(C)C(=O)[C@@H]2CCCN2C(=O)[C@H](CC(C)C)NC(=O)[C@@H](C)C(=O)[C@H](C(C)C)OC(=O)C[C@@H]1O (H-T[X36]LP[NMeY](Me); ester 1-C)
inactive: [1] 19.5 µM | [3] 21.6 µM | [20] 14.3 µM | [4] 20.6 µM | [5] 16.8 µM | [6] 3.67 µM | [9] 50.7 µM | [10] 29.1 µM | [11] 15.6 µM | [12] 22.3 µM | [13] 30.3 µM | [14] > 100 µM | [16] 36.7 µM | [17] 33.7 µM | [18] 6.85 µM | [19] 35.4 µM

O=C(/N=C1\SCCN1C(=O)C(C(F)(F)F)C(F)(F)F)C(C(F)(F)F)C(F)(F)F
inactive: [1] > 100 µM | [3] > 100 µM | [20] > 100 µM | [4] > 100 µM | [5] > 100 µM | [6] > 100 µM | [7] > 100 µM | [8] > 100 µM | [9] > 100 µM | [10] > 100 µM | [11] > 100 µM | [12] > 100 µM | [13] > 100 µM | [14] > 100 µM | [15] > 100 µM | [16] > 100 µM | [17] > 100 µM | [18] > 100 µM | [19] > 100 µM

CCOC(=O)/C=C(/N=P(c1ccccc1)(c1ccccc1)c1ccccc1)C(F)(F)F
inactive: [2] > 10 µM | [3] > 10 µM | [20] > 10 µM | [4] > 10 µM | [5] > 10 µM | [6] > 10 µM | [7] > 10 µM | [8] > 10 µM | [9] > 10 µM | [10] > 10 µM | [11] > 10 µM | [12] > 10 µM | [13] > 10 µM | [14] > 10 µM | [15] > 10 µM | [16] > 10 µM | [18] > 10 µM | [19] > 10 µM

Cc1ccc(-n2cc(-c3ccc(Cl)cc3)c3c(NNC(=S)NCc4ccccc4)ncnc32)cc1
inactive: [1] 4.69 µM | [2] 24.9 µM | [3] 5.06 µM | [20] 2.59 µM | [4] 4.56 µM | [5] 16.1 µM | [6] 14.3 µM | [7] 17.8 µM | [8] 23.6 µM | [9] 6.22 µM | [10] 13.6 µM | [11] 12.6 µM | [12] 2.77 µM | [13] 2.07 µM | [14] 6.37 µM | [15] 4.66 µM | [16] 11.1 µM | [18] 6.38 µM | [19] 13.5 µM

N#CN=C(NCc1ccccc1)NCc1ccccc1
inactive: [1] > 44 µM | [3] > 100 µM | [4] > 100 µM | [5] > 100 µM | [6] > 100 µM | [8] > 100 µM | [9] > 100 µM | [10] > 64.9 µM | [11] > 100 µM | [12] > 100 µM | [13] > 64.7 µM | [15] 18.4 µM | [16] > 100 µM | [18] > 100 µM | [19] > 100 µM

C[N+](C)(C)C1(C(=O)[O-])CC1
inactive: [1] > 100 µM | [2] > 100 µM | [3] > 100 µM | [20] > 100 µM | [4] > 100 µM | [5] > 100 µM | [6] > 100 µM | [8] > 100 µM | [9] > 100 µM | [10] > 100 µM | [11] > 100 µM | [12] > 100 µM | [13] > 100 µM | [14] > 100 µM | [15] > 100 µM | [16] > 100 µM | [17] > 100 µM | [18] > 100 µM | [19] > 100 µM

Cc1ccc2c(c1)nc1n2C(c2c(F)cccc2F)SC1 (stereo unspecified)
inactive: [1] 31.9 µM | [3] 33.5 µM | [20] 20.7 µM | [4] 55.8 µM | [5] 41 µM | [6] 28.8 µM | [7] 41 µM | [9] 39.5 µM | [10] 35.2 µM | [11] 56.8 µM | [12] 21 µM | [13] 52.8 µM | [14] 31.8 µM | [15] 28.4 µM | [16] 81.1 µM | [17] 41.7 µM | [18] 14.1 µM | [19] 41.5 µM

Cc1c(NC(=O)CCl)c(=O)oc2c(C)c3occc(=O)c3cc12
inactive: [1] 11.5 µM | [2] 23.7 µM | [5] 12.8 µM | [6] 14.9 µM | [8] 16.9 µM | [9] 13.9 µM | [10] 16.6 µM | [11] 12.1 µM | [12] 3.48 µM | [13] 10.7 µM | [14] 18.6 µM | [15] 11.6 µM | [16] 14.5 µM | [17] 6.79 µM | [18] 1.37 µM

CC(C)N(C(=O)C12C3C4C5(C#N)C3C1(I)C5C42I)C(C)C (stereo unspecified)
inactive: [1] > 27 µM | [3] > 40.3 µM | [4] > 100 µM | [5] > 100 µM | [6] > 73.8 µM | [8] > 100 µM | [9] > 100 µM | [10] > 100 µM | [11] > 100 µM | [12] > 44.3 µM | [13] > 78 µM | [15] 17.8 µM | [16] > 100 µM | [18] > 100 µM | [19] > 100 µM

CCCCCCCCCCCC(=O)Oc1c(Cl)cc(Cl)c(OC(=O)C(=O)Oc2c(Cl)cc(Cl)c(OC(=O)CCCCCCCCCCC)c2Cl)c1Cl
inactive: [1] > 100 µM | [2] > 100 µM | [3] > 100 µM | [20] > 100 µM | [5] > 100 µM | [6] > 100 µM | [9] > 100 µM | [10] > 100 µM | [11] > 100 µM | [12] > 100 µM | [13] > 100 µM | [14] > 100 µM | [15] > 100 µM | [16] > 100 µM | [17] > 100 µM | [18] 46.6 µM | [19] > 100 µM

S=C=Nc1ccc(CSc2nc3ccccc3[nH]2)cc1
inactive: [1] 17.3 µM | [2] 16.1 µM | [3] 17.2 µM | [20] 17.9 µM | [5] 18.7 µM | [6] 18.4 µM | [7] 23.3 µM | [8] 23 µM | [9] 17.8 µM | [10] 14.3 µM | [11] 19.3 µM | [12] 29.5 µM | [13] 20.8 µM | [14] 18 µM | [15] 24 µM | [16] 20.1 µM | [18] 23.7 µM | [19] 17.6 µM

Cc1ccccc1/C=N/C12CC3CC(CC(C3)C1)C2
inactive: [1] > 100 µM | [3] > 100 µM | [4] > 100 µM | [5] > 100 µM | [6] > 100 µM | [8] > 100 µM | [9] > 100 µM | [10] > 100 µM | [11] > 100 µM | [12] > 100 µM | [13] > 100 µM | [15] > 100 µM | [16] > 100 µM | [18] > 100 µM | [19] > 100 µM

COc1ccc(Cc2c(=O)[nH]nc3ccccc23)cc1
inactive: [1] > 100 µM | [3] > 100 µM | [4] > 100 µM | [5] > 100 µM | [6] > 100 µM | [8] > 100 µM | [9] 90.6 µM | [10] > 100 µM | [11] > 100 µM | [12] > 100 µM | [13] > 100 µM | [15] > 100 µM | [16] > 100 µM | [18] > 100 µM | [19] 61 µM

CCCOC(=O)C1CCC(=O)N1C(=O)C(Cl)Cl (stereo unspecified)
inactive: [1] > 100 µM | [3] > 100 µM | [4] > 100 µM | [5] > 100 µM | [6] > 100 µM | [8] > 100 µM | [9] > 100 µM | [10] > 100 µM | [11] > 100 µM | [12] > 100 µM | [13] > 100 µM | [15] > 100 µM | [16] > 100 µM | [18] > 100 µM | [19] > 100 µM
